From paper PMC8692498, “Synthesis and multifaceted pharmacological activity of novel quinazoline NHE-1 inhibitors” (Scientific Reports, 2021)
“Also recorded” adds a separate entry of the source.

Key:
NHE-1 = target: T1, NHE-1 (Oryctolagus cuniculus, UniProt P23791); assay: NHE-1 inhibition assay on rabbit platelets (platelet shape change after acidification with sodium propionate, laser aggregometer); type: cell-based; conditions: 10 nM, rabbit platelet-rich plasma, decimal commas; read-out: NHE-1 inhibition at 10 nM, m ± SD, n = 6 (%)
T1 construct: endogenous in cells; host or cells: rabbit platelets in platelet-rich plasma (male rabbits)
T1 sequence (P23791 whole entry): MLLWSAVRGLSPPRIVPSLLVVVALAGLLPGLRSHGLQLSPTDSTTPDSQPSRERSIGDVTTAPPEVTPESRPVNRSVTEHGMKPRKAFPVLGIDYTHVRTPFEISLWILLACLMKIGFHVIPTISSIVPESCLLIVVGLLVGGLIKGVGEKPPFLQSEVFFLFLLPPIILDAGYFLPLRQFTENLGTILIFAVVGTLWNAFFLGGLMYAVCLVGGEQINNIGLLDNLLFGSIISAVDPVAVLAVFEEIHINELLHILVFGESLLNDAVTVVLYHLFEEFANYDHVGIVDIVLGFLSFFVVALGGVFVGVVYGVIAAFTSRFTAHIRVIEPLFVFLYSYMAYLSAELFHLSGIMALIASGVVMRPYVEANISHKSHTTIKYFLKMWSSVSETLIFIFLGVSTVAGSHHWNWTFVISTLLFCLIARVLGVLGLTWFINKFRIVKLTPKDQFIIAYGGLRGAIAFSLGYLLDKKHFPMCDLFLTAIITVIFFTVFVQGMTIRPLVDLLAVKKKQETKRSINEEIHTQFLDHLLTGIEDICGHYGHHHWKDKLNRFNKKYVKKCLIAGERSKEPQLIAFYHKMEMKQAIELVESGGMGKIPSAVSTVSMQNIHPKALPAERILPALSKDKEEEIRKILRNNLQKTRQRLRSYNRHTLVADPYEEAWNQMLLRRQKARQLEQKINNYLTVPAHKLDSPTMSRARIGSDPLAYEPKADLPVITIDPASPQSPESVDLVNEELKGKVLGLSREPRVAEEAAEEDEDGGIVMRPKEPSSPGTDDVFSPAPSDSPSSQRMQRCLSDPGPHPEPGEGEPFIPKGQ
Method: Evaluation of NHE-1 inhibition was carried out on rabbit platelets by the known method[39],[40]. The experiments were carried out on 15 male rabbits weighing 3.0-4.0 kg. Platelet-rich plasma (PRP) was obtained by centrifuging blood with 3.8% sodium citrate (1:10) at 1000 rpm for 12 min (Multi centrifuge CM 6M, Latvia). Platelet shapeshifting due to acidification was followed with a laser aggregometer BIOLA-220 LA (Russia). Test compounds (10 μl, 10 nM final concentration) were added to 200 μl of PRP 5 min in a cuvette before the addition of sodium propionate solution, incubated with constant stirring using a magnetic stirrer (800 rpm, 37 °C). To control samples for NHE-1 activation, a buffer solution containing sodium propionate was added to 200 μL of PRP (600 μL, 135 mM sodium propionate, 20 mM HEPES, 1 mM CaCI2, 1 mM MgCI2, 10 mM glucose; pH 6.7). The change in light transmission at pH 7.4, 37 °C was monitored in a Krebs solution (600 μL, 120 mM NaCl, 4.8 mM KCl, 1.2 mM KH2PO4, 2.5 mM MgSO4, 25 mM NaHCO3, 2.6 mM CaCl2, 5.4 mM glucose; pH 7.4). Test compounds were added to a final concentration of 10 nM to the cuvette into 200 μl of PRP 5 min before adding the sodium propionate solution, incubated with constant stirring using a magnetic stirrer (800 rpm, 37 °C). NHE-1 inhibitors zoniporide, rimeporide, amiloride were used as reference drugs. Assays were run in 6 independent series.

IL-6 secretion = assay: Interleukin-6 secretion (ELISA) from LPS-stimulated peritoneal macrophages; type: cell-based, mice; conditions: male, C57BL/6J, mouse, primary peritoneal macrophages stimulated with LPS; CC50 versus IC50 of IL-6 secretion; read-out: selectivity of IL-6 inhibition over cytotoxicity
Method: (§1) Peritoneal macrophages (PM) were isolated from the peritoneal exudate of 30 male C57bl/6j mice. To accumulate PM, 1 ml of 3% peptone solution was injected intraperitoneally. After 3 days the mice were euthanized by cervical dislocation. Cells of peritoneal exudate were obtained by aseptically washing the abdominal cavity with 5 ml of sterile Hanks’s solution (+ 4-6 °C) without calcium and magnesium ions. The total number and viability of cells were assessed in a Goryaev counting chamber (Russia) with a 0.4% trypan blue staining (Sigma-Aldrich, USA). The cell concentration was adjusted to 1.0×10^6 cells/ml in DMEM (Gibco) supplemented with 2 mM L-glutamine (Gibco), 10% heat-inactivated fetal bovine serum (BioClot, Germany), 100 U/ml penicillin and […] streptomycin (Gibco) and plated 200 μl/well in 96-well transparent plates (SPL Life Sciences Co., Ltd., Korea). It was left for 2 h at 37°C in a humidified atmosphere with 5% CO2, after which the wells were washed to remove non-adherent cells. After 24 hours of incubation, 20 μl of the supernatant was removed and 20 μl of solutions of test compounds were added 30 min before E. coli O127:B8 LPS (100 ng/ml final concentration). Experiments were run in 3 independent replicates.
(§2) Cell supernatant was collected and centrifuged at 1000 g for 20 min in a 2-16PK Sigma centrifuge (Germany). The concentration of IL-6 was determined by ELISA using a commercial kit (Cloud-clone ELISA kit) with a microplate reader Infinite M200 PRO (Tecan, Austria).

[1] = system: primary peritoneal macrophages of C57BL/6J mice; assay: as above; type: cell-based
Method: as §1, §2

ICR mice = assay: Tail suspension test (antidepressant activity); type: in vivo; conditions: intragastrically 30 min before test, dose equimolar to 2.6 mg/kg amiloride
Method: The experiment was carried out on 36 male ICR mice weighing 22-25 g, divided into groups of 6 animals each under room lighting (300 lux). […] In experiments, test substances were administered intragastrically 30 min before the start of the test. Experimental groups received test compounds in an equimolar dose to the comparison drug amiloride. Animals of the remaining groups were treated with 2.6 mg/kg amiloride, 10 mg/kg amitriptyline, or 8 mg/kg imipramine. Distilled water was administered to the control group. The time of immobilization of the animals was recorded.

[2] = Cytotoxicity study (LDH activity in the medium) in peritoneal macrophages; type: cell-based; conditions: male, C57BL/6J, mouse, primary peritoneal macrophages; murine peritoneal macrophages, LDH
Method: as §1
(§3) The activity of lactate dehydrogenase (LDH) in a cell culture medium served as a marker of membrane permeability and cell death. Aliquotes of supernatants were taken after 24 h of inoculation with test compounds, mixed with 250 μl of […] NADH solution in 54 mM phosphate buffered saline (pH 7.5). Then, 25 μl of a 6.48 mM pyruvate solution was added to the mixture. The optical density was followed at a wavelength of 340 nm for 20 min. Conversion of optical density into cell viability was carried out according to a standard curve (DMSO-treated cells as 100% and 0.01% Triton X-100-treated cells as 0% viable cells).

[3] = system: primary peritoneal macrophages of C57BL/6J mice; assay: Nitric oxide synthesis (nitrite, Griess reagent) in LPS-stimulated peritoneal macrophages; type: cell-based; conditions: 100 μM
Method: as §1
The accumulation of nitrite anion (a stable end product of NO decomposition produced by iNOS) in supernatants was determined using a standard Griess reagent. Briefly, 50 μl of supernatants collected 22 hours after incubation of PM with test and control compounds were mixed with 50 μl of 1% sulfonamide in 2.5% H3PO4 and 50 μl of 0.1% N-(1-naphthyl) ethylenediamine in 2,5% H3PO4. After incubation at 23 °C for 10 min in an orbital shaker, the optical density was determined at a wavelength of 550 nm with a microplate reader Infinite M200 PRO (Tecan, Austria).

rabbit platelets = assay: ADP-induced platelet aggregation assay in rabbit platelet-rich plasma; type: cell-based; conditions: 100 μM, ADP 5 μM
Method: Functional activity of platelets was determined on a two-channel laser analyzer of platelet aggregation "BIOLA-220 LA" (Russia) as described previously. The experiments were carried out on 6 male rabbits weighing 3.5–4 kg. To prepare platelet-rich plasma (PRP) venous blood was taken from the ear marginal vein of a rabbit, stabilized with a 3.8% sodium citrate solution in a ratio of 9:1 and centrifuged for 10 min at 1500 rpm. PRP (300 μL) and a solution of the test compound at a concentration of 100 μM were sequentially introduced into the cell of the aggregometer. The samples were incubated in thermostated cells of the aggregometer at 37 °C for 5 min. To induce aggregation adenosine-5-diphosphoric acid (ADP, Sigma, USA) at a final concentration of 5 μM, was added to the cuvette. Acetylsalicylic acid (Shandong Xinhua Pharmaceutical Co., Ltd., China) was used as a reference drug. Experiments were run in 5 independent replicates.

[4] = system: advanced glycation products from bovine serum albumin and glucose; assay: Antiglycating activity (AGE fluorescence, bovine serum albumin and glucose); type: biochemical; conditions: BSA 1 mg/ml, glucose 0.36 M, 60 °C, 24 hrs; read-out: IC50 of formation of advanced glycation products
Method: The glycation reaction was modeled using 1 mg/ml bovine serum albumin (Chemmed, Russia) and 0.36 M glucose (Vekton, Russia) in 50 mM phosphate buffer solution (PBS, pH 7.4) at 60 °C. After 24 hrs, albumin was precipitated using trichloroacetic acid (10% final concentration) and centrifugation (15 000 rpm, 4 min). The supernatant was removed by aspiration, and the residue was dissolved in 50 mM PBS (pH 10.5). Aliquots of 300 µl were transferred to a black flat-bottom 96-well microplate. AGE fluorescence was registered using Infinite M200 Pro (Tecan, Austria) microplate reader at excitation/emission wavelengths of 370/440 nm. Signals were normalized using blank samples containing BSA and the test compound in the appropriate concentration without the glucose. When normalized, the activity is expressed as the AGE fluorescence coefficient, determined by the formula: Flu=10^log10A-log10B-1, where A and B correspond to the absolute fluorescence values of the glucose-containing and mean glucose-free sample.
Activity percentage was calculated using the formula: A%=1-FluSample/FluControl×100%, where Flu(Sample) and Flu(Control) correspond to the normalized fluorescence coefficients of experimental and control samples. Experiments were run in 5 independent replicates.

[5] = system: primary peritoneal macrophages of C57BL/6J mice; assay: Cytotoxicity study (LDH activity in the medium) in peritoneal macrophages; type: cell-based; conditions: 100 μM, peritoneal macrophages
Method: as §1, §3

SMILES	inhibition at 0.01 µM (NHE-1) [%]	selectivity ratio (IL-6 secretion)	secretion of interleukin 6 ([1]; LPS-stimulated macrophages, screening (Fig. 4))	IC50 ([1]; Mus musculus, Peritoneal macrophage, LPS-stimulated murine macrophages, read-out: IC50 of IL-6 synthesis/secretion) [µM]	melting point [°C]	antidepressant activity (ICR mice)	CC50 at 24 h [2] [µM]	inhibition of the synthesis of nitric oxide [3]	antiplatelet activity versus acetylsalicylic acid (rabbit platelets)	IC50 [4] [µM]	effect on cell viability [5]
Nc1nnc(Cn2c(=O)c3ccccc3n(Cc3ccccc3)c2=O)[nH]1 [Compound 3i, 3-[(5-Amino-4H-1,2,4-triazol-3-yl)methyl]-1-benzylquinazoline-2,4(1H,3H)-dione]	12.9	4 to 6	suppressed	24.1	262 to 265	antidepressant activity similar to amiloride; also recorded: antidepressant activity comparable with amiloride	146				
Nc1nc(Cn2cnc3ccc(Br)cc3c2=O)n[nH]1 [Compound 6b, 3-[(5-Amino-1H-1,2,4-triazol-3-yl)methyl]-6-bromoquinazolin-4(3H)-one]	25.8							statistically significantly inhibit	exceeded the activity of the reference drug, acetylsalicylic acid	506	absence of a statistically significant effect on cell viability
N=C(N)NN [aminoguanidine, reference compound]										4520	
